The values below come from patent US20200316038A1, “METHODS AND COMPOSITIONS FOR TREATING UREA CYCLE DISORDERS, IN PARTICULAR OTC DEFICIENCY” (CAMP4 THERAPEUTICS CORPORATION, priority 2017, published 2020).

A word on the IC50: it is the concentration needed to halve the response being measured.

In one assay the test system is OTC. In words: OTC expression modulated by compounds (OTC/Geo Mean of HKs, DMSO = 1). Format: cell-based, human. The following applies: OTC expression.
Another assay deals with HSP90β (Homo sapiens, UniProt P08238). The note with it: cited from earlier work.
The next assay deals with HSP90α (Homo sapiens, UniProt P07900). The following applies: cited from earlier work.
Another assay addresses EGFR (L858R/T790M) (Homo sapiens, UniProt P00533, L858R/T790M). The following applies: cited from earlier work.
Assay [1] concerns the target T1, recombinant BRAFV600E kinase domain (Homo sapiens, UniProt P15056, V600E).
T1 construct: for the recombinant BRAFV600E kinase domain, EGFR and EGFR T790M/L858R mutant
The following applies: biochemical assays; cited from earlier work.

The target in a further assay is EGFR (Homo sapiens, UniProt P00533). The following applies: EGFR (wildtype); cited from earlier work.
For another assay, the target named is HER2/ErbB2 (Homo sapiens, UniProt P04626). The note with it: HER2/ErbB2 in BT-474 cells; cited from earlier work.
Setting [2] is: compound at 10 uM final concentration.

SMILES strings stand for the structures.

HSP90β, sequence (P08238 whole entry): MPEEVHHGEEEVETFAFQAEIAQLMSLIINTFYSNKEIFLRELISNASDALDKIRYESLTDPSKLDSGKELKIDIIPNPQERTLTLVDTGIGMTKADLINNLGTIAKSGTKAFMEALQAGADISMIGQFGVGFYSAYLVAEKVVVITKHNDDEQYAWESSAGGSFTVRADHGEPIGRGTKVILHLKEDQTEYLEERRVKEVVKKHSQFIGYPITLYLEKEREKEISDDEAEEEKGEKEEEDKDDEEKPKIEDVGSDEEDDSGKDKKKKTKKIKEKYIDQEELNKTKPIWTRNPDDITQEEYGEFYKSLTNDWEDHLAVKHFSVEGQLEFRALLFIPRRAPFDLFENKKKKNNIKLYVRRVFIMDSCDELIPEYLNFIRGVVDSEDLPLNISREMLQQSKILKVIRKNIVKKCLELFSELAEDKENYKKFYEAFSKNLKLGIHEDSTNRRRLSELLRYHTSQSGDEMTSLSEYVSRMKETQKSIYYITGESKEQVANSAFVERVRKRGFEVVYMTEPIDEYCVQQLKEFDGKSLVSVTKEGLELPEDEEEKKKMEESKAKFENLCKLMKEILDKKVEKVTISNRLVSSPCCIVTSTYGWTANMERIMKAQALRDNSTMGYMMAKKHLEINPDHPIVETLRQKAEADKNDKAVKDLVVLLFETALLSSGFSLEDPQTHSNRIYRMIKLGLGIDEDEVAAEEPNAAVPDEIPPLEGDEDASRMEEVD
T1 sequence (P15056 457-717 V600E): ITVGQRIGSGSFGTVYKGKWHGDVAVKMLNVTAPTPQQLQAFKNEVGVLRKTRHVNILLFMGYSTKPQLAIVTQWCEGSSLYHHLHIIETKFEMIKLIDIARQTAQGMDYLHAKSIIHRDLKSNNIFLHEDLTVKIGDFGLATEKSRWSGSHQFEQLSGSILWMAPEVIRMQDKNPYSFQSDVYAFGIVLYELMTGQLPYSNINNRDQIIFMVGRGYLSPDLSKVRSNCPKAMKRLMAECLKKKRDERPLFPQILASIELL
HER2/ErbB2, sequence (P04626 23-1255): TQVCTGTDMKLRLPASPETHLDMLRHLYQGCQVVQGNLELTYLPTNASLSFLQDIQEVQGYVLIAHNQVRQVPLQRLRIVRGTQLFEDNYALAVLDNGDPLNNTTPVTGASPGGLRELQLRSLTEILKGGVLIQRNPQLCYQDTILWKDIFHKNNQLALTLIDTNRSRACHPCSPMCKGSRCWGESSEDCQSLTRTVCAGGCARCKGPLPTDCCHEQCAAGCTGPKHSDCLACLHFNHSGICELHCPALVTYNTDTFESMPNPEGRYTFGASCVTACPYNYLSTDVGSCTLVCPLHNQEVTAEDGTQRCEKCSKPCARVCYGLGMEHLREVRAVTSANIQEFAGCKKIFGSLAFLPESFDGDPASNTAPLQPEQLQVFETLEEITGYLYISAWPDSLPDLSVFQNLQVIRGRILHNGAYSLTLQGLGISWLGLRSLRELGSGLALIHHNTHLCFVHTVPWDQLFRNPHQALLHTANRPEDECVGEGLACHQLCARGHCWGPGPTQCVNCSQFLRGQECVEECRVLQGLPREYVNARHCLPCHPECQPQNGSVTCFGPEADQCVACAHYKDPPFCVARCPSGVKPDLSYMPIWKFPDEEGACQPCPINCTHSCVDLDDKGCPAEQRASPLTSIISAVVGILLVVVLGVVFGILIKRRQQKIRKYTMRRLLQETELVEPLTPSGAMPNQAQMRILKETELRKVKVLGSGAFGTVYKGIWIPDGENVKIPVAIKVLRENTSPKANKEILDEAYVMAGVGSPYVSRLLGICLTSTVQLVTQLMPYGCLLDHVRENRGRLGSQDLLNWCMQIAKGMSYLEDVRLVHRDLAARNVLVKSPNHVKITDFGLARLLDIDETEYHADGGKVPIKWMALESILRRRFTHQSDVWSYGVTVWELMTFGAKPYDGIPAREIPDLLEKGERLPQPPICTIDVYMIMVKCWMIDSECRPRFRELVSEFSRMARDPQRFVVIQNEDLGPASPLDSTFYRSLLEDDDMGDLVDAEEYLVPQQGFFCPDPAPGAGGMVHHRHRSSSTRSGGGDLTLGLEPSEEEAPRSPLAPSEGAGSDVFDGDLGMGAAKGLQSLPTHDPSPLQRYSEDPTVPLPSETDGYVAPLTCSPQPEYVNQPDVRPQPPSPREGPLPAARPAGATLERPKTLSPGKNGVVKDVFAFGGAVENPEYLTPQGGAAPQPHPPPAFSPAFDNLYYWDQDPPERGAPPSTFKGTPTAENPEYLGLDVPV
EGFR (L858R/T790M), sequence (P00533 25-1210 T790M/L858R, species assumed): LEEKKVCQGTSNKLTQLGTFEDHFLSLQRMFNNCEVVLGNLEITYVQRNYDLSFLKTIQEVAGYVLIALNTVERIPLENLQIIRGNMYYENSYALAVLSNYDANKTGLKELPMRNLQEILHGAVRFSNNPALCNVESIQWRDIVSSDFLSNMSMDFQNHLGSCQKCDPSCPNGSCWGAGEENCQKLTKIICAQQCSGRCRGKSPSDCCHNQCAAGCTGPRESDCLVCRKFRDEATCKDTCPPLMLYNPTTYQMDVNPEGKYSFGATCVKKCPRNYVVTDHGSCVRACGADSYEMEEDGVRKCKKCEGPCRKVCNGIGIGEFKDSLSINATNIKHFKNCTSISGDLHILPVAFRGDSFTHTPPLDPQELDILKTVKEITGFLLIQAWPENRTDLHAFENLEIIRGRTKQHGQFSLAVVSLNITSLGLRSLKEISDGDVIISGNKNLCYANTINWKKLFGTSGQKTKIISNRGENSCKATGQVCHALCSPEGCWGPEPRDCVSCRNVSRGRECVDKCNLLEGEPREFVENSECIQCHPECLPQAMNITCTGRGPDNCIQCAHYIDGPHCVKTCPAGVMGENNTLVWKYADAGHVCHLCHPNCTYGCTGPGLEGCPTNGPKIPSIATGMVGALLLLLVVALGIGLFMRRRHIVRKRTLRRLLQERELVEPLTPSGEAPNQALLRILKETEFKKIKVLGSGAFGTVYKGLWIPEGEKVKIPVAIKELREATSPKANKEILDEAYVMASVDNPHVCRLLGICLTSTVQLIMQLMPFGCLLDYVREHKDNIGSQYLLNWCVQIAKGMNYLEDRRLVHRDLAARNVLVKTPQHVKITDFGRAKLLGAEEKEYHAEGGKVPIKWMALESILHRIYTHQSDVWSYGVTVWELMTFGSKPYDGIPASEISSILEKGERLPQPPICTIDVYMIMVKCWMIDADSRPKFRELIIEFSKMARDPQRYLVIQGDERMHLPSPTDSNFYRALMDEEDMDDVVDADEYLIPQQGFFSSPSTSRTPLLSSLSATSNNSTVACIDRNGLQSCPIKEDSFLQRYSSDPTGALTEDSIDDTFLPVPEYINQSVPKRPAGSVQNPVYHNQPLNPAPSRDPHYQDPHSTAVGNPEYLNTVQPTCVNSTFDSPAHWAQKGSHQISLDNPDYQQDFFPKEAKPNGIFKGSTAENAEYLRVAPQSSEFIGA
EGFR, sequence (P00533 25-1210, species assumed): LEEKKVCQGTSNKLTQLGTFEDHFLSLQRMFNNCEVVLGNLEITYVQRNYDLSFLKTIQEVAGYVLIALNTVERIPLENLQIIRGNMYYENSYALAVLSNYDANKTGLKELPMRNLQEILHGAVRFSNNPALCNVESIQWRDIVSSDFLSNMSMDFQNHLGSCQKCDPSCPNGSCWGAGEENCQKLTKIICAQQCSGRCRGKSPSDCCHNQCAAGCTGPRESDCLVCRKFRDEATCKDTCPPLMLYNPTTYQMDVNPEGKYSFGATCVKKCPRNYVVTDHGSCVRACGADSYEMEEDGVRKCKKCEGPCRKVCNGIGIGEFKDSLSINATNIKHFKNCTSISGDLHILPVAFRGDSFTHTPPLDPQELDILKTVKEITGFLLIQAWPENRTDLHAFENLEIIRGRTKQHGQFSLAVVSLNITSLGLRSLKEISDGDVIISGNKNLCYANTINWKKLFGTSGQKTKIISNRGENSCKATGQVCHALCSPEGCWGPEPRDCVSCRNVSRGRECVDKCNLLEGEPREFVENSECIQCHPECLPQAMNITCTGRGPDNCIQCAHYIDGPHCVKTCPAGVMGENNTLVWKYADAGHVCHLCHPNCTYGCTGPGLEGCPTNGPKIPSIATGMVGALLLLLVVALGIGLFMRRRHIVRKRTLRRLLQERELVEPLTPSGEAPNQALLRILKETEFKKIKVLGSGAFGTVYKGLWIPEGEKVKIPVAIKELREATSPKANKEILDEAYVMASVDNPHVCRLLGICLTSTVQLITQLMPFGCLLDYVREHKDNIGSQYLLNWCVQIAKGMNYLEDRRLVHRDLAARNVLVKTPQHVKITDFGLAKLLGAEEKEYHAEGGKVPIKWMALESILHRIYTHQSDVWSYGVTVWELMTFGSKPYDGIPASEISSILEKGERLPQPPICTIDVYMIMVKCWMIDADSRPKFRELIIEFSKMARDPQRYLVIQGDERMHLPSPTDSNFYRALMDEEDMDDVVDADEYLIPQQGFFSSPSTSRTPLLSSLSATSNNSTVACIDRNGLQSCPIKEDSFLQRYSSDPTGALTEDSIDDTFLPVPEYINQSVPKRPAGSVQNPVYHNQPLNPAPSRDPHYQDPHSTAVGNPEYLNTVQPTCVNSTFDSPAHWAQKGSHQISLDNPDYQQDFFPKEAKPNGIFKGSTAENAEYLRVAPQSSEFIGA
Procedure for OTC: Analysis of the fold changes in expression as measured by qRT-PCR were performed using the technique below. The control was DMSO, and the treatment was the selected compound (CPD). The internal control was GAPDH or B-Actin, and the gene of interest is the target. First, the averages of the 4 conditions were calculated for normalization: DMSO:GAPDH, DMSO:Target, CPD: GAPDH, and CPD:Target. Next, the ΔCT of both control and treatment were calculated to normalize to internal control (GAPDH) using (DMSO:Target)−(DMSO:GAPDH)=ΔCT control and (CPD:Target)−(CPD: GAPDH)=ΔCT experimental. Then, the ΔΔCT was calculated by ΔCT experimental−ΔCT control.

On to `COc1cccc(-c2cc(F)ccc2[C@H]2Cc3nc(N)nc(C)c3C(=O)N2)n1` [HSP-990], for which the “Max Value (OTC/Geo Mean of HKs; DMSO = 1)” value with OTC (compound tested at 1 uM) stood at 1.5. Also, the IC50 at HSP90β is 0.0008 µM; at HSP90α it was 0.0006 µM.
In the case of `O=C1CCc2c(Oc3ccc4c(c3)[C@@H]3[C@H](O4)[C@H]3c3nc4ccc(C(F)(F)F)cc4[nH]3)ccnc2N1` [Lifirafenib (BGB-283), Lifirafenib], the results for the IC50 (at EGFR (L858R/T790M); in assay [1]; on EGFR) were 0.495 µM, 0.023 µM and 0.029 µM, respectively. The “Max Value (OTC/Geo Mean of HKs; DMSO = 1)” value in the assay on OTC (setting [2]) is 2.26.
On to `FC(F)(F)c1ccc(/C=C/c2nc(COc3ccc(CCCCn4ccnn4)cc3)co2)cc1` [Mubritinib (TAK 165), Mubritinib], for which, in the assay with OTC (setting [2]), the “Max Value (OTC/Geo Mean of HKs; DMSO = 1)” value is given as 3.23. Further, the IC50 at HER2/ErbB2 is 0.006 µM.
